Read-outs that look alike come from different tables or passages of the source.
Assays:
[1] = Biodistribution in healthy and SRC bearing rats at 1 h after i.v. injection of radiolabelled compounds; format: in vivo; settings: mean ± SD (n = 3)
Description: (§1) Quantitative biodistribution of radiolabelled compounds was determined in rats: healthy animals as well as rats with primary grade II orthotopic chondrosarcoma at stage Day-30 after induction. The chondrosarcoma model was the Swarm Rat Chondrosarcoma model (SRC) implanted in paratibial location. Radiolabelled compounds (5-10 Mbq/animal) were i.v. administered in the caudal vein of animals being anesthetized of mixture of ketamine (58 mg/kg i.p.) (Imalgéne 500®) and xylazine (6 mg/kg i.p.) (Rompun® 2%, Bayer, France). One hour after injection, animals were then sacrificed by CO2 inhalation, dissected and organs of interest removed, weighed and their radioactivity counted using a gamma counter (Model 1480 Wizard, Perkin Elmer Life Sciences, Boston, USA). Organs collected were blood, muscle, knee, kidneys, liver, thoracic ribs, bladder for both healthy and chondrosarcoma bearing rats. For SRC animals, tumour was also sampled. After radioactive decay correction, results were expressed for each organ as % injected dose per gram (% ID/g) and averaged per group.

[2] = Study 3: quantitative biodistribution of ^64Cu-5 in rats; format: in vivo
Description: as §1, with “USA).” for “USA). Organs collected were blood, muscle, knee, kidneys, liver, thoracic ribs, bladder for both healthy and chondrosarcoma bearing rats.”, “tumor” for “tumour”
The comparison was carried out between ^64Cu-5 and ^99mTc-NTPC, the NTPC ligand having the following structure: […]

[3] = Maurizis et al. 2000, 7.4 MBq/Kg; cited from earlier work
[4] = i.v., 5-10 MBq/animal, one hour after injection

## CC[N+](CC)(CC)CCCN1CCCNCCNCCCNCC1.[64Cu+2] [^64Cu-5, [^64Cu]—N,N,N-Triethyl-3-(1,4,8,11-tetraazacyclotetradecan-1-yl)propan-1-aminium copper(II)]
[1]; SRC (Swarm Rat Chondrosarcoma) bearing rats
  Tumor: 5.2 ± 2.1 % ID/g
[1]; healthy and SRC bearing rats
  Articular Cartilage: 5.9 ± 2.3 % ID/g
  Bladder: 66.5 ± 14.4 % ID/g
  Blood: 0.8 ± 1.2 % ID/g
  Kidney: 27.5 ± 10.1 % ID/g
  Muscle: 1.5 ± 1.2 % ID/g
[2]
  Uptake in kidneys compared to ^99mTc-NTPC: higher uptake
  Uptake in liver: undetectable
  Uptake in target organs (intervertebral disc and articular cartilage) compared to ^99mTc-NTPC: higher uptake
[2]; [4]
  Articular Cartilage: 5.9 ± 2.3 % ID/g
  Blood: 0.8 ± 1.2 % ID/g
  Intervertebral disc: 3.5 ± 0.6 % ID/g
  Kidney: 27.5 ± 10.1 % ID/g
[2]; indicated by accumulation in kidneys
  Elimination compared to ^99mTc-NTPC: good elimination
[2]; inferred from liver uptake
  In vivo stability (Cu is not released): stable

## CC[N+](CC)(CC)CCCN1CCCNCCNCCCNCC1 [^99mTc-NTPC, metal not drawn]
[3]
  Articular Cartilage: 0.52 ± 0.08 % ID/g
  Blood: 0.22 ± 0.05 % ID/g
  Intervertebral disc: 0.36 ± 0.09 % ID/g
  Kidney: 2.96 ± 0.36 % ID/g
  Liver: 4.34 ± 0.47 % ID/g

— patent US10351539B2, “Macrocyclic complexes, their process of preparation and use as PET imaging agents” (INSTITUT NATIONAL DE LA SANTE ET DE LA RECHERCHE MEDICALE …, priority 2014, dated 2019)
